Measured values taken from ChEMBL document CHEMBL5512655, “Discovery of indolylacryloyl-derived oxacins as novel potential broad-spectrum antibacterial candidates” (Eur J Med Chem, 2024).
Converted amounts (≈) assume the structure as drawn. The source made the active and inactive calls. The calls are words filed in the database; no cut-off is given here.

Assays:
Escherichia coli [1] = assay: Antibacterial activity against Escherichia coli assessed as reduction in bacterial burden at 2 to 4 times of MIC measured within 5 hrs by time-dependent kinetics assay; assay type: functional, organism-based
Cell membrane [2] = assay: Induction of cell membrane damage in Escherichia coli assessed as increase in density of red fluorescence at 4 times of MIC by Calcein-AM/PI dual staining based fluorescence microscopy; assay type: cell membranes
Staphylococcus aureus [3] = assay: Antibacterial activity against methicillin-resistant Staphylococcus aureus N315 assessed as reduction in bacterial burden at 2 to 4 times of MIC measured within 5 hrs by time-dependent kinetics assay; assay type: functional, organism-based
Escherichia coli [4] = assay: Antibacterial activity against Escherichia coli assessed as resistance development by measuring compound concentration required to inhibit measured after 18 generations; assay type: functional
Calf thymus DNA [5] = assay: Binding affinity to calf thymus DNA assessed as DNA intercalation with drug by […] assay; assay type: nucleic-acid assay; details: Bos taurus
Staphylococcus aureus [6] = assay: Anti-biofilm effect in methicillin-resistant Staphylococcus aureus N315 assessed as biofilm destruction by measuring eradication rate at MIC; assay type: functional
Pseudomonas aeruginosa [7] = assay: Antibacterial activity against Pseudomonas aeruginosa ATCC 27853 assessed as inhibition of bacterial growth measured after 24 hrs incubation; assay type: functional
Calf thymus DNA [8] = assay: Binding affinity to calf thymus DNA by acridine orange staining based competitive binding assay; assay type: nucleic-acid assay; details: Bos taurus
Acinetobacter baumannii = assay: Antibacterial activity against Acinetobacter baumannii assessed as inhibition of bacterial growth measured after 24 hrs incubation; assay type: functional
Escherichia coli [9] = assay: Anti-biofilm effect in Escherichia coli assessed as inhibition of biofilm formation by measuring reduction in exo-polysaccharide content at 6 times of MIC relative to control; assay type: functional
Enterococcus faecalis = assay: Antibacterial activity against Enterococcus faecalis assessed as inhibition of bacterial growth measured after 24 hrs incubation; assay type: functional
Cell membrane [10] = assay: Induction of cell membrane damage in methicillin-resistant Staphylococcus aureus N315 assessed as increase in density of red fluorescence at 4 times of MIC by Calcein-AM/PI dual staining based fluorescence microscopy; assay type: cell membranes
Staphylococcus aureus [11] = assay: Reduction in metabolic activity in methicillin-resistant Staphylococcus aureus N315 by Alamar Blue assay; assay type: functional, organism-based
Staphylococcus aureus [12] = assay: Reduction in metabolic activity in methicillin-resistant Staphylococcus aureus N315 at 6 times of MIC by Alamar Blue assay relative to control; assay type: functional; parameters: scale not given: the % may be the effect or the level left
Escherichia coli [13] = assay: Induction of lipid peroxidation in Escherichia coli assessed as malondialdehyde (MDA) level production at 4 time of MIC; assay type: functional, organism-based
Staphylococcus aureus [14] = assay: Anti-biofilm effect in methicillin-resistant Staphylococcus aureus N315 assessed as biofilm destruction rate at 6 times of MIC; assay type: functional
Escherichia coli [15] = assay: Anti-biofilm effect in Escherichia coli assessed as biofilm destruction by measuring eradication rate at MIC; assay type: functional
Staphylococcus aureus [16] = assay: Antibacterial activity against Staphylococcus aureus ATCC 25923 assessed as inhibition of bacterial growth measured after 24 hrs incubation; assay type: functional
Staphylococcus aureus [17] = assay: Antibacterial activity against methicillin-resistant Staphylococcus aureus N315 assessed as resistance development by measuring compound concentration required to inhibit measured after 18 generations; assay type: functional
Cell membrane [18] = assay: Induction of cytoplasmic membrane integrity loss in methicillin-resistant Staphylococcus aureus N315 assessed as increase in fluorescence intensity at MIC by Propidium iodide method (reference value: 554); assay type: cell membranes
Escherichia coli [19] = assay: Antibacterial activity against Escherichia coli ATCC 25922 assessed as inhibition of bacterial growth measured after 24 hrs incubation; assay type: functional
Staphylococcus aureus [20] = assay: Induction of ROS production in methicillin-resistant Staphylococcus aureus N315 assessed as fluorescence intensity at 2 times of MIC by DCFH-DA (dichlorofluorescin diacetate) probe based assay
Escherichia coli [21] = assay: Antibacterial activity against Escherichia coli assessed as resistance development measured after 18 generations; assay type: functional, organism-based
Escherichia coli [22] = assay: Induction of ROS production in Escherichia coli assessed as fluorescence intensity at 2 times of MIC by DCFH-DA (dichlorofluorescin diacetate) probe based assay; assay type: functional
Staphylococcus aureus [23] = assay: Anti-biofilm effect in methicillin-resistant Staphylococcus aureus N315 assessed as inhibition of biofilm formation by measuring reduction in exo-polysaccharide content at 6 times of MIC relative to control; assay type: functional
Escherichia coli [24] = assay: Induction of ROS production in Escherichia coli assessed as fluorescence intensity by DCFH-DA (dichlorofluorescin diacetate) probe based assay; assay type: functional, organism-based
Escherichia coli [25] = assay: Induction of lipid peroxidation in Escherichia coli assessed as malondialdehyde (MDA) level production; assay type: functional, organism-based
Staphylococcus aureus [26] = assay: Antibacterial activity against Staphylococcus aureus assessed as inhibition of bacterial growth measured after 24 hrs incubation; assay type: functional
Escherichia coli [27] = assay: Reduction in metabolic activity in Escherichia coli at 6 times of MIC by Alamar Blue assay relative to control; assay type: functional; parameters: scale not given: the % may be the effect or the level left
[28] = Hemolytic activity in human red blood cells assessed as hemolysis rate at 64 ug/ml relative to control; assay type: toxicity, cell-based, Erythrocyte; details: red blood cells (erythrocytes), at 64 µg/mL, read-out: Activity
Pseudomonas aeruginosa [29] = assay: Antibacterial activity against Pseudomonas aeruginosa assessed as inhibition of bacterial growth measured after 24 hrs incubation; assay type: functional
Staphylococcus aureus [30] = assay: Antibacterial activity against Staphylococcus aureus ATCC 29213 assessed as inhibition of bacterial growth measured after 24 hrs incubation; assay type: functional
Klebsiella pneumoniae = assay: Antibacterial activity against Klebsiella pneumonia assessed as inhibition of bacterial growth measured after 24 hrs incubation; assay type: functional
Escherichia coli [31] = assay: Reduction in metabolic activity in Escherichia coli by Alamar Blue assay; assay type: functional, organism-based
Staphylococcus aureus [32] = assay: Induction of lipid peroxidation in methicillin-resistant Staphylococcus aureus N315 assessed as malondialdehyde (MDA) level production; assay type: functional, organism-based
Staphylococcus aureus [33] = assay: Antibacterial activity against methicillin-resistant Staphylococcus aureus N315 assessed as resistance development measured after 18 generations; assay type: functional, organism-based
Escherichia coli [34] = assay: Antibacterial activity against Escherichia coli assessed as inhibition of bacterial growth measured after 24 hrs incubation; assay type: functional
Escherichia coli [35] = assay: Antibacterial activity against Escherichia coli assessed as reduction in bacterial burden at 2 to 4 times of MIC measured upto 7 hrs by time-dependent kinetics assay; assay type: functional, organism-based
Staphylococcus aureus [36] = assay: Antibacterial activity against methicillin-resistant Staphylococcus aureus N315 assessed as reduction in bacterial burden at 2 to 4 times of MIC measured upto 7 hrs by time-dependent kinetics assay; assay type: functional, organism-based
Staphylococcus aureus [37] = assay: Antibacterial activity against methicillin-resistant Staphylococcus aureus N315 assessed as inhibition of bacterial growth measured after 24 hrs incubation; assay type: functional
Staphylococcus aureus [38] = assay: Antibacterial activity against methicillin-resistant Staphylococcus aureus N315 assessed as resistance development measured after 10 generations; assay type: functional, organism-based
Calf thymus DNA [39] = assay: Binding affinity to calf thymus DNA assessed as hypochromism by spectroscopic analysis; assay type: nucleic-acid assay; details: Bos taurus
Escherichia coli [40] = assay: Antibacterial activity against Escherichia coli assessed as resistance development measured after 11 generations; assay type: functional, organism-based
Staphylococcus aureus [41] = assay: Induction of lipid peroxidation in methicillin-resistant Staphylococcus aureus N315 assessed as malondialdehyde (MDA) level production at 4 time of MIC; assay type: functional, organism-based
Escherichia coli [42] = assay: Anti-biofilm effect in Escherichia coli assessed as biofilm destruction rate at 6 times of MIC; assay type: functional
[43] = Hemolytic activity in human red blood cells assessed as hemolysis rate at 512 ug/ml relative to control; assay type: toxicity, cell-based, Erythrocyte; details: red blood cells (erythrocytes), at 512 µg/mL, read-out: Activity

CCn1cc(C(=O)O)c(=O)c2cc(F)c(N3CCN(C(=O)/C(C#N)=C/c4cn(CCO)c5ccccc45)CC3)cc21
Activity (Escherichia coli [1]): Active
Activity (Cell membrane [2]): Active
Activity (Staphylococcus aureus [3]): Active
MIC (Escherichia coli [4]): 32 µg/mL (≈ 57.4 µM)
Activity (Calf thymus DNA [5]): Active
inhibition (INH) (Staphylococcus aureus [6]): 22.1%
MIC (Pseudomonas aeruginosa [7]): 0.5 µg/mL (≈ 0.897 µM)
Activity (Calf thymus DNA [8]): Active
MIC (Acinetobacter baumannii): 0.5 µg/mL (≈ 0.897 µM)
inhibition (INH) (Escherichia coli [9]): <50%
MIC (Enterococcus faecalis): 0.25 µg/mL (≈ 0.448 µM)
Activity (Cell membrane [10]): Active
Activity (Staphylococcus aureus [11]): Dose-Dependent Effect
Activity (Staphylococcus aureus [12]): >50%
Activity (Escherichia coli [13]): Active
inhibition (INH) (Staphylococcus aureus [14]): >60%
inhibition (INH) (Escherichia coli [15]): 40.3%
MIC (Staphylococcus aureus [16]): 0.25 µg/mL (≈ 0.448 µM)
MIC (Staphylococcus aureus [17]): 64 µg/mL (≈ 115 µM)
Flu intensity (Cell membrane [18]): 1250
MIC (Escherichia coli [19]): 0.5 µg/mL (≈ 0.897 µM)
Activity (Staphylococcus aureus [20]): >50%
Activity (Escherichia coli [21]): Active
Activity (Escherichia coli [22]): >50%
inhibition (INH) (Staphylococcus aureus [23]): <50%
Activity (Escherichia coli [24]): Dose-Dependent Effect
Activity (Escherichia coli [25]): Dose-Dependent Effect
MIC (Staphylococcus aureus [26]): 0.25 µg/mL (≈ 0.448 µM)
Activity (Escherichia coli [27]): >50%
hemolysis at 64 ug/ml [28]: < 1.8%
MIC (Pseudomonas aeruginosa [29]): 1 µg/mL (≈ 1.79 µM)
MIC (Staphylococcus aureus [30]): 0.25 µg/mL (≈ 0.448 µM)
MIC (Klebsiella pneumoniae): 0.25 µg/mL (≈ 0.448 µM)
Activity (Escherichia coli [31]): Dose-Dependent Effect
Activity (Staphylococcus aureus [32]): Dose-Dependent Effect
Activity (Staphylococcus aureus [33]): Active
MIC (Escherichia coli [34]): 0.25 µg/mL (≈ 0.448 µM)
Activity (Escherichia coli [35]): Active
Activity (Staphylococcus aureus [36]): Active
MIC (Staphylococcus aureus [37]): 0.25 µg/mL (≈ 0.448 µM)
Activity (Staphylococcus aureus [38]): inactive
Activity (Calf thymus DNA [39]): Active
Activity (Escherichia coli [40]): inactive
Activity (Staphylococcus aureus [41]): Active
inhibition (INH) (Escherichia coli [42]): >60%
hemolysis at 512 ug/ml [43]: < 1.8%
